Measurements as given in PMC12846068, “Insights into Transport Function of the Murine Organic Anion-Transporting Polypeptide OATP1B2 by Comparison with Its Rat and Human Orthologues” (Toxics, 2025).
Entries after “also recorded” stand apart in the source; their conditions may differ. Read-outs that look alike come from different tables or passages of the source.

Key:
mOATP1B2 = molecular target: T1, mOATP1B2 (Mus musculus, UniProt Q9JJL3); experiment: cis-inhibition of mOATP1B2-mediated E1S or TCA uptake in HEK293 cells; type: cell-based
T1 construct: The full-length mOATP1B2 and rOATP1B2 consist of 689 and 678 amino acids
T1 sequence (Q9JJL3 1-689): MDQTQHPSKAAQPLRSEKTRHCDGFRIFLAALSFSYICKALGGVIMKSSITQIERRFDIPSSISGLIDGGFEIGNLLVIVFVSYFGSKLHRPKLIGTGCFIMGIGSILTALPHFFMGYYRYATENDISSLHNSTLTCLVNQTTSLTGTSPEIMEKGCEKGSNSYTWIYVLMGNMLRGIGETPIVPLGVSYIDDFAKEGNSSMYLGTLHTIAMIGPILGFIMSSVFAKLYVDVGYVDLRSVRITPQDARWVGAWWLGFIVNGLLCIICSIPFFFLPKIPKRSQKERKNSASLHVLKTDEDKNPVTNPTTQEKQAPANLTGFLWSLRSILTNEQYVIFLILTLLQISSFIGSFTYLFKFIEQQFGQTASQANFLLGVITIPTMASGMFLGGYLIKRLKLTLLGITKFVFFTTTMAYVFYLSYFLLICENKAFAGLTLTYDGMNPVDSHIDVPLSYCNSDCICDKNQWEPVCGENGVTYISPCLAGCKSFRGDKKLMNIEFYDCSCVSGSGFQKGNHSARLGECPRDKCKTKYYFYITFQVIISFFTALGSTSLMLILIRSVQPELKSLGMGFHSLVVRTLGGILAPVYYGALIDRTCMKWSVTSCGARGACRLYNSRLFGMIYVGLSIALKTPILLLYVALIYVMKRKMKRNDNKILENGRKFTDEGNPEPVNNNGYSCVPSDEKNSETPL
Protocol: Inhibition experiments with mOATP1B2 and rOATP2B1 were carried out in triplicate as cis-inhibition. […] Inhibitory effects were calculated as a percentage of the net-uptake rates. […] The means ± average deviation (AD, for N = 2) were calculated from two experiments on two different days. The significance as a p-value was calculated using Student's t-test in Microsoft Excel.

hOATP1B1 = molecular target: T2, hOATP1B1 (Homo sapiens, UniProt Q9Y6L6); conditions: read-out: IC50 for hOATP1B1, cited from earlier work
T2 sequence (Q9Y6L6 1-691): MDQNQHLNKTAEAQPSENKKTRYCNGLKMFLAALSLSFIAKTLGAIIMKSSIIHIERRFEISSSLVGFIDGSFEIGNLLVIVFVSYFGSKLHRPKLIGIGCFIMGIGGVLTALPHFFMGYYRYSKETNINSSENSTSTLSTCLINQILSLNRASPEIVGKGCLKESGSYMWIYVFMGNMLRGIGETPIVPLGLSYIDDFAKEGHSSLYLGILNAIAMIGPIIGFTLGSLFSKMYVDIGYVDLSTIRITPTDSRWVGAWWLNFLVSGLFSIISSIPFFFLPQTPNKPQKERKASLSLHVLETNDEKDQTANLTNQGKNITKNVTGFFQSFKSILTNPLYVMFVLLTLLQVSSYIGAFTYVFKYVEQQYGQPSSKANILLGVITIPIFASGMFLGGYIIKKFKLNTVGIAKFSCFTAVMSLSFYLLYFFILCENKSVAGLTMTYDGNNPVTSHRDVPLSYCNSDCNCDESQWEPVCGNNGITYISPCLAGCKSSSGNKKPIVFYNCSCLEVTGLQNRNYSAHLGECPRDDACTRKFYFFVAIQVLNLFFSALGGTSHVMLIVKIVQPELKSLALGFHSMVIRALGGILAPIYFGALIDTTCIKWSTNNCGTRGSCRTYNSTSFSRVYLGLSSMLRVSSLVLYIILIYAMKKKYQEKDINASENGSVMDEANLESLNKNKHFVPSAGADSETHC

hOATP1B3 [1] = molecular target: T3, hOATP1B3 (Homo sapiens, UniProt Q9NPD5); conditions: read-out: IC50 for OATP1B3; cited from earlier work
T3 sequence (Q9NPD5 1-702): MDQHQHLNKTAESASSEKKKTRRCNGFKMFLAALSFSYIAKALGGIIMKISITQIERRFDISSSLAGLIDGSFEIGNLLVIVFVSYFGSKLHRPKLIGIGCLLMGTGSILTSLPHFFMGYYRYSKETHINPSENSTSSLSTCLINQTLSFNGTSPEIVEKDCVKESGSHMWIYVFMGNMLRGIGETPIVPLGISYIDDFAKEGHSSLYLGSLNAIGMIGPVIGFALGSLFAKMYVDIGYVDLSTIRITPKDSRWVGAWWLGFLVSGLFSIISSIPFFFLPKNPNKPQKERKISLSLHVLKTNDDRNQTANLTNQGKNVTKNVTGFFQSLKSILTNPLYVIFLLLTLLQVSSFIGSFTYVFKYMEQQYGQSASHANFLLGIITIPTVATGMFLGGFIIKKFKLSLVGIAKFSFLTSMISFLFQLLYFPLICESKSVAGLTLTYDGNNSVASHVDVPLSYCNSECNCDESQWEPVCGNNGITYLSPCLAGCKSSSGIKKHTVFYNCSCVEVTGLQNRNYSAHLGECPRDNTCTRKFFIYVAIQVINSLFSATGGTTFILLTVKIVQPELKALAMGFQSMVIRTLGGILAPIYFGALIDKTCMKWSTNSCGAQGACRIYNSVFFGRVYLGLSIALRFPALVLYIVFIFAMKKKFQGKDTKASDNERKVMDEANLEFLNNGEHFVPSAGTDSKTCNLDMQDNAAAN

hOATP1B3 [2] = molecular target: T3, hOATP1B3; set-up: expressed in transfected cells; host or cells: HEK-293, stably transfected; conditions: read-out: Km as substrate of hOATP1B3; cited from earlier work
[3] = HEK293, 10 µM drug, 1 µM [3H]-E1S, 1 min, read-out: Inhibitory effect on mOATP1B2-mediated E1S uptake
[4] = HEK293, read-out: Inhibitory effect on mOATP1B2-mediated TCA uptake, 10 µM drug, 1 µM [3H]-TCA, 1 min
[5] = HEK293, read-out: Inhibitory effect on mOATP1B2-mediated substrate uptake (summary over E1S and TCA), 10 µM drug, substrates E1S and TCA not separated

inhibition at 10 µM (mOATP1B2; [3]) [%] | inhibition at 10 µM (mOATP1B2; [4]) [%] | inhibition at 10 µM (mOATP1B2; [5]) [%] | IC50 (mOATP1B2; 1 µM [3H]-E1S, 1 min, read-out: IC50, mOATP1B2-mediated E1S uptake) [µM] | difference in inhibition between mOATP1B2 and rOATP1B2 (mOATP1B2; 10 µM drug) [%] | IC50 (mOATP1B2; IC50, mOATP1B2-mediated TCA uptake, 1 µM [3H]-TCA, 1 min) [µM] | SMILES | IC50 (hOATP1B1; ref Karlgren et al. (2012) [21]) [µM] | IC50 (hOATP1B3 [1]) [µM] | Inhibitory effect on mOATP1B2-mediated substrate uptake (summary over E1S and TCA) (mOATP1B2; 10 µM drug, substrates E1S and TCA not separated) | IC50 (hOATP1B1) [µM] | IC50 (hOATP1B1; estradiol-17β-glucuronide as substrate) [µM] | Km (hOATP1B3 [2]) [µM]
12 | 32 | < 50 | – | – | – | CC(C)CN(C[C@@H](O)[C@H](Cc1ccccc1)NC(=O)O[C@H]1CCOC1)S(=O)(=O)c1ccc(N)cc1 [Amprenavir, amprenavir] | 16.8 | 19.1 | – | – | – | –
6 | -2 | – | – | – | – | Clc1ccccc1C(c1ccccc1)(c1ccccc1)n1ccnc1 [Clotrimazole, clotrimazole] | – | – | no inhibitory properties; also recorded: did not inhibit | 9 | – | –
41 | 29 | < 50 | – | – | – | CC(=O)N1CCN(c2ccc(OCC3COC(Cn4ccnc4)(c4ccc(Cl)cc4Cl)O3)cc2)CC1 (centres unmarked) [Ketoconazole, ketoconazole] | – | – | – | – | 1.8 | –
69 | 54 | 54 to 82 | – | – | – | CCCCC1(CCCC)CN(c2ccccc2)c2cc(SC)c(OCC(=O)N[C@@H](C(=O)N[C@@H](CC)C(=O)O)c3ccc(O)cc3)cc2S(=O)(=O)N1 [Odevixibat, odevixibat] | – | – | – | – | – | –
44 | 53 | ≥ 50 | 9.6 | > 30 | 7.7 | CO[C@H]1/C=C/O[C@@]2(C)Oc3c(C)c(O)c4c(O)c(c(/C=N/N5CCN(C)CC5)c(O)c4c3C2=O)NC(=O)/C(C)=C\C=C\[C@H](C)[C@H](O)[C@@H](C)[C@@H](O)[C@@H](C)[C@H](OC(C)=O)[C@@H]1C [Rifampicin, rifampicin] | – | – | – | – | – | –
50 | 52 | ≥ 50 | – | – | – | CC(C)c1nc(N(C)S(C)(=O)=O)nc(-c2ccc(F)cc2)c1/C=C/[C@@H](O)C[C@@H](O)CC(=O)O [Rosuvastatin, rosuvastatin] | – | – | – | – | – | 14.2
